Values after ≈ are worked out from the molar mass of the structure shown.
What was measured:
Mycobacterium kansasii [1] = experiment: Antimycobacterial activity against Mycobacterium kansasii isolate 6509/96 after 21 days by micromethod; format: functional; settings: isolate 6509/96, 504 h
CHO-K1 = experiment: Cytotoxicity against CHOK1 cells after 24 hrs by MTT assay; format: cell-based; settings: Cricetulus griseus, CHO-K1, 24 h
Mycobacterium kansasii [2] = experiment: Antimycobacterial activity against Mycobacterium kansasii isolate 6509/96 after 14 days by micromethod; format: functional; settings: isolate 6509/96, 336 h
Mycobacterium avium [3] = experiment: Antimycobacterial activity against Mycobacterium avium CNCTC My 330/80 after 21 days by micromethod; format: functional; settings: CNCTC My 330/80, 504 h
Mycobacterium kansasii [4] = experiment: Antimycobacterial activity against Mycobacterium kansasii isolate 6509/96 after 7 days by micromethod; format: functional; settings: isolate 6509/96, 168 h
Mycobacterium avium [5] = experiment: Antimycobacterial activity against Mycobacterium avium CNCTC My 330/80 after 14 days by micromethod; format: functional; settings: CNCTC My 330/80, 336 h
Mycobacterium kansasii [6] = experiment: Antimycobacterial activity against Mycobacterium kansasii CNCTC My 235/80 after 21 days by micromethod; format: functional; settings: CNCTC My 235/80, 504 h
Mycobacterium kansasii [7] = experiment: Antimycobacterial activity against Mycobacterium kansasii CNCTC My 235/80 after 14 days by micromethod; format: functional; settings: CNCTC My 235/80, 336 h
[8] = test system: Mycobacterium tuberculosis; experiment: Antimycobacterial activity against Mycobacterium tuberculosis H37Rv CNCTC My 331/88 after 14 days by micromethod; format: functional; settings: H37Rv CNCTC My 331/88, 336 h
[9] = test system: Mycobacterium tuberculosis; experiment: Antimycobacterial activity against Mycobacterium tuberculosis H37Rv CNCTC My 331/88 after 21 days by micromethod; format: functional; settings: H37Rv CNCTC My 331/88, 504 h
Mycobacterium kansasii [10] = experiment: Antimycobacterial activity against Mycobacterium kansasii CNCTC My 235/80 after 7 days by micromethod; format: functional; settings: CNCTC My 235/80, 168 h
Klebsiella pneumoniae [11] = experiment: Antibacterial activity against Klebsiella pneumoniae HK11750/08 after 24 hrs by broth microdilution method; format: functional
Klebsiella pneumoniae [12] = experiment: Antibacterial activity against extended spectrum beta-lactamase producing Klebsiella pneumoniae HK14368/08 after 24 hrs by broth microdilution method; format: functional
Escherichia coli = experiment: Antibacterial activity against Escherichia coli ATCC 8739 after 24 hrs by broth microdilution method; format: functional
Pseudomonas aeruginosa = experiment: Antibacterial activity against Pseudomonas aeruginosa ATCC 9027 after 24 hrs by broth microdilution method; format: functional
Candida albicans = experiment: Antifungal activity against Candida albicans ATCC 44859 after 24 hrs by broth microdilution method; format: functional; settings: ATCC 44859, 24 h
Lichtheimia corymbifera = experiment: Antifungal activity against Absidia corymbifera 272 after 24 hrs by broth microdilution method; format: functional; settings: Lichtheimia corymbifera, 272, 24 h
Pichia kudriavzevii = experiment: Antifungal activity against Candida krusei E28 after 24 hrs by broth microdilution method; format: functional; settings: E28, 24 h
[13] = test system: Trichophyton mentagrophytes; experiment: Antifungal activity against Trichophyton mentagrophytes 445 after 72 hrs by broth microdilution method; format: functional; settings: Trichophyton mentagrophytes, 445, 72 h
Candida tropicalis = experiment: Antifungal activity against Candida tropicalis 156 after 24 hrs by broth microdilution method; format: functional; settings: Candida tropicalis, 156, 24 h
Trichosporon asahii = experiment: Antifungal activity against Trichosporon asahii 1188 after 24 hrs by broth microdilution method; format: functional; settings: Trichosporon asahii, 1188, 24 h
Aspergillus fumigatus = experiment: Antifungal activity against Aspergillus fumigatus 231 after 24 hrs by broth microdilution method; format: functional; settings: Aspergillus fumigatus, 231, 24 h

Row | Molecule | MIC99 (Mycobacterium kansasii [1]) [µM] | IC50 (CHO-K1) [µM] | MIC99 (Mycobacterium kansasii [2]) [µM] | MIC99 (Mycobacterium avium [3]) [µM] | MIC99 (Mycobacterium kansasii [4]) [µM] | MIC99 (Mycobacterium avium [5]) [µM] | MIC99 (Mycobacterium kansasii [6]) [µM] | MIC99 (Mycobacterium kansasii [7]) [µM] | MIC99 [8] [µM] | MIC99 [9] [µM] | MIC99 (Mycobacterium kansasii [10]) [µM] | also measured
1 | O=[N+]([O-])c1cc(-c2nnn(Cc3ccc(Cl)c(Cl)c3)n2)cc([N+](=O)[O-])c1 | 0.5 (≈ 0.198 µg/mL) | 37 | 0.5 (≈ 0.198 µg/mL) | 8 (≈ 3.16 µg/mL) | 0.25 (≈ 0.0988 µg/mL) | 4 (≈ 1.58 µg/mL) | 1 (≈ 0.395 µg/mL) | 0.5 (≈ 0.198 µg/mL) | 0.125 (≈ 0.0494 µg/mL) | 0.125 (≈ 0.0494 µg/mL) | 0.25 (≈ 0.0988 µg/mL) | 
2 | GENTAMICIN |  |  |  |  |  |  |  |  |  |  |  | MIC (Klebsiella pneumoniae [11]): 0.26 µM; MIC (Klebsiella pneumoniae [12]): 0.26 µM; MIC (Escherichia coli): 0.26 µM; MIC (Pseudomonas aeruginosa): 1 µM
3 | O=[N+]([O-])c1cc(Sc2nnnn2C2CCCCC2)cc([N+](=O)[O-])c1 | 1 (≈ 0.35 µg/mL) | 153 | 1 (≈ 0.35 µg/mL) | 32 (≈ 11.2 µg/mL) | 1 (≈ 0.35 µg/mL) | 32 (≈ 11.2 µg/mL) | 1 (≈ 0.35 µg/mL) | 1 (≈ 0.35 µg/mL) | 1 (≈ 0.35 µg/mL) | 1 (≈ 0.35 µg/mL) | 1 (≈ 0.35 µg/mL) | 
4 | OC(Cn1cncn1)(Cn1cncn1)c1ccc(F)cc1F [FLUCONAZOLE] |  |  |  |  |  |  |  |  |  |  |  | MIC (Candida albicans): 0.82 µM (≈ 0.251 µg/mL); MIC (Lichtheimia corymbifera): > 500 µM; MIC (Pichia kudriavzevii): 105 µM (≈ 32.2 µg/mL); MIC [13]: 105 µM (≈ 32.2 µg/mL); MIC (Candida tropicalis): 1.6 µM (≈ 0.49 µg/mL); MIC (Trichosporon asahii): 210 µM (≈ 64.3 µg/mL); MIC (Aspergillus fumigatus): > 500 µM
5 | O=[N+]([O-])c1cc(-c2nnn(CSc3nnnn3C3CCCCC3)n2)cc([N+](=O)[O-])c1 | 0.03 (≈ 0.013 µg/mL) | 140 | 0.03 (≈ 0.013 µg/mL) | 16 (≈ 6.92 µg/mL) | 0.03 (≈ 0.013 µg/mL) | 8 (≈ 3.46 µg/mL) | 0.06 (≈ 0.0259 µg/mL) | 0.06 (≈ 0.0259 µg/mL) | 0.03 (≈ 0.013 µg/mL) | 0.03 (≈ 0.013 µg/mL) | 0.06 (≈ 0.0259 µg/mL) | 
6 | O=[N+]([O-])c1cc(Sc2nnnn2Cc2ccccc2)cc([N+](=O)[O-])c1 | 4 (≈ 1.43 µg/mL) | 127 | 4 (≈ 1.43 µg/mL) | 62.5 (≈ 22.4 µg/mL) | 2 (≈ 0.717 µg/mL) | 32 (≈ 11.5 µg/mL) | 16 (≈ 5.73 µg/mL) | 8 (≈ 2.87 µg/mL) | 1 (≈ 0.358 µg/mL) | 2 (≈ 0.717 µg/mL) | 8 (≈ 2.87 µg/mL) | 
